The values that follow come from patent US9139557B2, “Carboxamide compounds and their use as calpain inhibitors” (Abbott GmbH & Co. KG, priority 2006, dated 2015).

What all share (format): biochemical
Test [1] addresses T1, cathepsin L (Homo sapiens, UniProt P07711).
T1 construct: cathepsin L—isolated from human liver; purchased Calbiochem 219402; host or cells: human liver (tissue isolate)
The test is described as follows: Cathepsin L enzyme inhibition in vitro (kinetic fluorescence assay). The following applies: Ki(cathepsin L)/Ki(calpain) ratio. The gist of the method:
(§1)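 Kinetic fluorescence (ex 390/em 460 nm), room temperature: calpain-I (human erythrocyte, 20 nM) with 100 µM Suc-Leu-Tyr-AMC, imidazole/CaCl2 pH 7.3; cathepsin B (liver, 0.25 nM), 100 µM Z-Phe-Arg-AMC; L (liver, 1 nM), 2 µM Z-Phe-Arg-AMC; S (recombinant, 0.5 nM), 20 µM Z-Val-Val-Arg-AMC; cathepsins in MES/EDTA/cysteine pH 6.0. Apparent Ki via Cheng-Prusoff, 2–4 curves averaged.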

Test [2] deals with T2, cathepsin K (Homo sapiens, UniProt P43235).
T2 construct: purchased Calbiochem 342001; host or cells: E. coli
T2 sequence (P43235 115-329): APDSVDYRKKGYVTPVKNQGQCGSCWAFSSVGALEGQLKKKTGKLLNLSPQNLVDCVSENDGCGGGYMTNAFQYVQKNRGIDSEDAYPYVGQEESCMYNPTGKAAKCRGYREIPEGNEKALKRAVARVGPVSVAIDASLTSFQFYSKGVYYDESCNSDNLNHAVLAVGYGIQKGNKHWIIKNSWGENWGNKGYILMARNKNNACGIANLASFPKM
The test is described as follows: Cathepsin K enzyme inhibition in vitro (kinetic fluorescence assay). The note with it: Ki(cathepsin K)/Ki(calpain) ratio.

In test [3] the target is T3, cathepsin B (Homo sapiens, UniProt P07858).
T3 construct: cathepsin B—isolated from human liver; purchased Calbiochem 219362; host or cells: human liver (tissue isolate)
The test is described as follows: Cathepsin B enzyme inhibition in vitro (kinetic fluorescence assay). The following applies: Ki(cathepsin B)/Ki(calpain) ratio. A digest of the protocol:
as §1

The target of test [4] is T4, cathepsin S (Homo sapiens, UniProt P25774).
T4 construct: purchased Calbiochem 219343; host or cells: E. coli
The test is described as follows: Cathepsin S enzyme inhibition in vitro (kinetic fluorescence assay). The following applies: Ki(cathepsin S)/Ki(calpain) ratio. A digest of the protocol: as §1

T4 sequence (P25774 115-331): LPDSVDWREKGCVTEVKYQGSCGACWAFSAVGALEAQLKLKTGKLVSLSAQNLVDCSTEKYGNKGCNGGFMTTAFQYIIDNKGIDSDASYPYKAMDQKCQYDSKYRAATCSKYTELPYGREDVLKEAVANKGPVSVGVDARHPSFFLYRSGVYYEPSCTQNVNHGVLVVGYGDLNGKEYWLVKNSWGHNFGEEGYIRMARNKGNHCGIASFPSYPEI
T1 sequence (P07711 114-333): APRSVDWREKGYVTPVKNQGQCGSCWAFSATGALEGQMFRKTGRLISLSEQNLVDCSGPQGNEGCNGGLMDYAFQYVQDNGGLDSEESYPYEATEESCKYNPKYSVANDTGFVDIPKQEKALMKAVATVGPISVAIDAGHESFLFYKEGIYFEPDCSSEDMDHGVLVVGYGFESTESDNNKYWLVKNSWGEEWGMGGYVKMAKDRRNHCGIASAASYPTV

`NC(=O)C(=O)C(Cc1ccccc1)NC(=O)c1cccnc1-n1ccc(-c2cccs2)n1` (centres unmarked) [Example 55, N-(3-Amino-1-benzyl-2,3-dioxopropyl)-2-[3-(2-thienyl)-1H-pyrazol-1-yl]nicotinamide]: in test [1], the “Sel cat. L” value is listed as “++ (++ means a Ki(cathepsin L)/Ki(calpain) ratio of ≧50)”. Further, in test [2], the “Sel cat. K” value is on record as “+ (+ means 10≦Ki(cathepsin K)/Ki(calpain)<30)”. In test [3], the “Sel cat. B” value is listed as “+ (+ means 10≦Ki(cathepsin B)/Ki(calpain)<30)”. Besides, the “Sel cat. S” value in test [4] was “++ (++ means a Ki(cathepsin S)/Ki(calpain) ratio of ≧100)”.
The corresponding values for `NC(=O)C(=O)C(Cc1ccccc1)NC(=O)c1cccnc1-n1ccc(-c2sccc2Cl)n1` (centres unmarked) [Example 109, N-[3-Amino-2,3-dioxo-1-(phenylmethyl)propyl]-2-[3-(3-chloro-2-thienyl)-1H-pyrazol-1-yl]pyridine-3-carboxamide] are “++ (++ means a Ki(cathepsin L)/Ki(calpain) ratio of ≧50)”, “++ (++ means a Ki(cathepsin K)/Ki(calpain) ratio of ≧30)”, “++ (++ means a Ki(cathepsin B)/Ki(calpain) ratio of ≧30)” and “++ (++ means a Ki(cathepsin S)/Ki(calpain) ratio of ≧100)”.
The corresponding values for `NC(=O)C(=O)C(Cc1ccc(F)cc1)NC(=O)c1cccnc1-n1ccc(-c2ccccc2OC(F)(F)F)n1` (centres unmarked) [Example 152, N-{3-Amino-1-[(4-fluorophenyl)methyl]-2,3-dioxopropyl}-2-(3-{2-[(trifluoromethyl)oxy]phenyl}-1H-pyrazol-1-yl)pyridine-3-carboxamide] are “++ (++ means a Ki(cathepsin L)/Ki(calpain) ratio of ≧50)”, “++ (++ means a Ki(cathepsin K)/Ki(calpain) ratio of ≧30)”, “++ (++ means a Ki(cathepsin B)/Ki(calpain) ratio of ≧30)” and “++ (++ means a Ki(cathepsin S)/Ki(calpain) ratio of ≧100)”.
The corresponding values for `COc1ccc(CC(NC(=O)c2cccnc2-n2ccc(-c3ccccc3)n2)C(=O)C(N)=O)cc1` (centres unmarked) [Example 80, N-[3-Amino-1-(4-methoxybenzyl)-2,3-dioxopropyl]-2-(3-phenyl-1H-pyrazol-1-yl)nicotinamide] are “++ (++ means a Ki(cathepsin L)/Ki(calpain) ratio of ≧50)”, “+ (+ means 10≦Ki(cathepsin K)/Ki(calpain)<30)”, “++ (++ means a Ki(cathepsin B)/Ki(calpain) ratio of ≧30)” and “++ (++ means a Ki(cathepsin S)/Ki(calpain) ratio of ≧100)”.
Turning to `NC(=O)C(=O)C(Cc1ccccc1)NC(=O)c1cccnc1-n1ccc(-c2ccccc2OC(F)(F)F)n1` (centres unmarked) [Example 124, N-[3-Amino-2,3-dioxo-1-(phenylmethyl)propyl]-2-(3-{2-[(trifluoromethyl)oxy]phenyl}-1H-pyrazol-1-yl)pyridine-3-carboxamide], in test [1], the “Sel cat. L” value was “++ (++ means a Ki(cathepsin L)/Ki(calpain) ratio of ≧50)”. In addition, the “Sel cat. K” value in test [2] is listed as “++ (++ means a Ki(cathepsin K)/Ki(calpain) ratio of ≧30)”. Besides, the “Sel cat. B” value in test [3] is given as “++ (++ means a Ki(cathepsin B)/Ki(calpain) ratio of ≧30)”. In test [4], the “Sel cat. S” value is listed as “++ (++ means a Ki(cathepsin S)/Ki(calpain) ratio of ≧100)”.
`NC(=O)C(=O)C(Cc1ccc(OC(F)(F)F)cc1)NC(=O)c1cccnc1-n1ccc(-c2cccc(C(F)(F)F)c2)n1` (centres unmarked) [Example 134, N-[3-Amino-2,3-dioxo-1-({4-[(trifluoromethyl)oxy]phenyl}methyl)propyl]-2-{3-[3-(trifluoromethyl)phenyl]-1H-pyrazol-1-yl}pyridine-3-carboxamide]: in test [1], the “Sel cat. L” value was “+ (+ means 30≦Ki(cathepsin L)/Ki(calpain)<50)”. For the same compound, the “Sel cat. K” value in test [2] was “++ (++ means a Ki(cathepsin K)/Ki(calpain) ratio of ≧30)”. Further, the “Sel cat. B” value in test [3] is “++ (++ means a Ki(cathepsin B)/Ki(calpain) ratio of ≧30)”. The “Sel cat. S” value in test [4] was “+ (+ means 50≦Ki(cathepsin S)/Ki(calpain)<100)”.
For the compound `NC(=O)C(=O)C(Cc1ccccc1)NC(=O)c1cccnc1-n1ccc(-c2cc(Cl)ccc2Cl)n1` (centres unmarked) [Example 112, N-[3-Amino-2,3-dioxo-1-(phenylmethyl)propyl]-2-[3-(2,5-dichlorophenyl)-1H-pyrazol-1-yl]pyridine-3-carboxamide], in test [1], the “Sel cat. L” value is on record as “++ (++ means a Ki(cathepsin L)/Ki(calpain) ratio of ≧50)”. Besides, the “Sel cat. K” value in test [2] was “++ (++ means a Ki(cathepsin K)/Ki(calpain) ratio of ≧30)”. Also, in test [3], the “Sel cat. B” value is given as “++ (++ means a Ki(cathepsin B)/Ki(calpain) ratio of ≧30)”. The “Sel cat. S” value in test [4] is “++ (++ means a Ki(cathepsin S)/Ki(calpain) ratio of ≧100)”.
On to `NC(=O)C(=O)C(Cc1ccccc1)NC(=O)c1cccnc1-n1ccc(-c2ccccc2Cl)n1` (centres unmarked) [Example 54, N-(3-Amino-1-benzyl-2,3-dioxopropyl)-2-[3-(2-chlorophenyl)-1H-pyrazol-1-yl]nicotinamide], for which the “Sel cat. L” value in test [1] is given as “++ (++ means a Ki(cathepsin L)/Ki(calpain) ratio of ≧50)”. Moreover, the “Sel cat. K” value in test [2] is listed as “++ (++ means a Ki(cathepsin K)/Ki(calpain) ratio of ≧30)”. Also, the “Sel cat. B” value in test [3] is “++ (++ means a Ki(cathepsin B)/Ki(calpain) ratio of ≧30)”. Moreover, the “Sel cat. S” value in test [4] is listed as “++ (++ means a Ki(cathepsin S)/Ki(calpain) ratio of ≧100)”.
Regarding `NC(=O)C(=O)C(Cc1ccccc1)NC(=O)c1cccnc1-n1cc2c(n1)-c1ccccc1SC2` (centres unmarked) [Example 173, N-[3-Amino-2,3-dioxo-1-(phenylmethyl)propyl]-2-thiochromeno[4,3-c]pyrazol-2(4H)-ylpyridine-3-carboxamide], the “Sel cat. L” value in test [1] is “++ (++ means a Ki(cathepsin L)/Ki(calpain) ratio of ≧50)”. Also, the “Sel cat. K” value in test [2] was “+ (+ means 10≦Ki(cathepsin K)/Ki(calpain)<30)”. The “Sel cat. B” value in test [3] was “+ (+ means 10≦Ki(cathepsin B)/Ki(calpain)<30)”. Further, in test [4], the “Sel cat. S” value is listed as “++ (++ means a Ki(cathepsin S)/Ki(calpain) ratio of ≧100)”.
For `COc1ccc(Cl)cc1-c1ccn(-c2ncccc2C(=O)NC(Cc2ccccc2)C(=O)C(N)=O)n1` (centres unmarked) [Example 131, N-[3-Amino-2,3-dioxo-1-(phenylmethyl)propyl]-2-{3-[5-chloro-2-(methyloxy)phenyl]-1H-pyrazol-1-yl}pyridine-3-carboxamide] the same measures were “++ (++ means a Ki(cathepsin L)/Ki(calpain) ratio of ≧50)”, “++ (++ means a Ki(cathepsin K)/Ki(calpain) ratio of ≧30)”, “++ (++ means a Ki(cathepsin B)/Ki(calpain) ratio of ≧30)” and “++ (++ means a Ki(cathepsin S)/Ki(calpain) ratio of ≧100)”.
In the case of `NC(=O)C(=O)C(Cc1ccccc1)NC(=O)c1cccnc1-n1cc2c(n1)-c1cc(Cl)ccc1OC2` (centres unmarked) [Example 140, N-[3-Amino-2,3-dioxo-1-(phenylmethyl)propyl]-2-(8-chlorochromeno[4,3-c]pyrazol-2(4H)-yl)pyridine-3-carboxamide], the “Sel cat. L” value in test [1] is given as “++ (++ means a Ki(cathepsin L)/Ki(calpain) ratio of ≧50)”. Also, the “Sel cat. K” value in test [2] is given as “++ (++ means a Ki(cathepsin K)/Ki(calpain) ratio of ≧30)”. In addition, the “Sel cat. B” value in test [3] was “+ (+ means 10≦Ki(cathepsin B)/Ki(calpain)<30)”. The “Sel cat. S” value in test [4] was “++ (++ means a Ki(cathepsin S)/Ki(calpain) ratio of ≧100)”.
The corresponding values for `NC(=O)C(=O)C(Cc1ccccc1)NC(=O)c1cccnc1-n1ccc(-c2ccc(F)cc2)n1` (centres unmarked) [Example 38, N-(3-Amino-1-benzyl-2,3-dioxopropyl)-2-[3-(4-fluorophenyl)-1H-pyrazol-1-yl]nicotinamide] are “++ (++ means a Ki(cathepsin L)/Ki(calpain) ratio of ≧50)”, “+ (+ means 10≦Ki(cathepsin K)/Ki(calpain)<30)”, “+ (+ means 10≦Ki(cathepsin B)/Ki(calpain)<30)” and “++ (++ means a Ki(cathepsin S)/Ki(calpain) ratio of ≧100)”.
For the compound `NC(=O)C(=O)C(Cc1ccccc1)NC(=O)c1cccnc1-n1ccc(-c2cc(C(F)(F)F)ccc2CN2CCOCC2)n1` (centres unmarked) [Example 163, N-[3-Amino-2,3-dioxo-1-(phenylmethyl)propyl]-2-{3-[2-(morpholin-4-ylmethyl)-5-(trifluoromethyl)phenyl]-1H-pyrazol-1-yl}pyridine-3-carboxamide], in test [1], the “Sel cat. L” value is listed as “+ (+ means 30≦Ki(cathepsin L)/Ki(calpain)<50)”. In test [2], the “Sel cat. K” value is reported as “+ (+ means 10≦Ki(cathepsin K)/Ki(calpain)<30)”. Also, in test [3], the “Sel cat. B” value is reported as “+ (+ means 10≦Ki(cathepsin B)/Ki(calpain)<30)”. Also, the “Sel cat. S” value in test [4] is recorded as “++ (++ means a Ki(cathepsin S)/Ki(calpain) ratio of ≧100)”.
The corresponding values for `NC(=O)C(=O)C(Cc1ccccc1)NC(=O)c1cccnc1-n1ccc(-c2ccc(F)cc2F)n1` (centres unmarked) [Example 94, N-[3-Amino-2,3-dioxo-1-(phenylmethyl)propyl]-2-[3-(2,4-difluorophenyl)-1H-pyrazol-1-yl]pyridine-3-carboxamide] are “++ (++ means a Ki(cathepsin L)/Ki(calpain) ratio of ≧50)”, “+ (+ means 10≦Ki(cathepsin K)/Ki(calpain)<30)”, “++ (++ means a Ki(cathepsin B)/Ki(calpain) ratio of ≧30)” and “++ (++ means a Ki(cathepsin S)/Ki(calpain) ratio of ≧100)”.
